According to PMC10272112 (Nature Communications, 2023):
pKd: −log10 of the molar value. Like-named read-outs stand apart in the source and are kept apart here.

Target: T1, HDAC6 (Homo sapiens, UniProt Q9UBN7)
T1 sequence (Q9UBN7 1-1215): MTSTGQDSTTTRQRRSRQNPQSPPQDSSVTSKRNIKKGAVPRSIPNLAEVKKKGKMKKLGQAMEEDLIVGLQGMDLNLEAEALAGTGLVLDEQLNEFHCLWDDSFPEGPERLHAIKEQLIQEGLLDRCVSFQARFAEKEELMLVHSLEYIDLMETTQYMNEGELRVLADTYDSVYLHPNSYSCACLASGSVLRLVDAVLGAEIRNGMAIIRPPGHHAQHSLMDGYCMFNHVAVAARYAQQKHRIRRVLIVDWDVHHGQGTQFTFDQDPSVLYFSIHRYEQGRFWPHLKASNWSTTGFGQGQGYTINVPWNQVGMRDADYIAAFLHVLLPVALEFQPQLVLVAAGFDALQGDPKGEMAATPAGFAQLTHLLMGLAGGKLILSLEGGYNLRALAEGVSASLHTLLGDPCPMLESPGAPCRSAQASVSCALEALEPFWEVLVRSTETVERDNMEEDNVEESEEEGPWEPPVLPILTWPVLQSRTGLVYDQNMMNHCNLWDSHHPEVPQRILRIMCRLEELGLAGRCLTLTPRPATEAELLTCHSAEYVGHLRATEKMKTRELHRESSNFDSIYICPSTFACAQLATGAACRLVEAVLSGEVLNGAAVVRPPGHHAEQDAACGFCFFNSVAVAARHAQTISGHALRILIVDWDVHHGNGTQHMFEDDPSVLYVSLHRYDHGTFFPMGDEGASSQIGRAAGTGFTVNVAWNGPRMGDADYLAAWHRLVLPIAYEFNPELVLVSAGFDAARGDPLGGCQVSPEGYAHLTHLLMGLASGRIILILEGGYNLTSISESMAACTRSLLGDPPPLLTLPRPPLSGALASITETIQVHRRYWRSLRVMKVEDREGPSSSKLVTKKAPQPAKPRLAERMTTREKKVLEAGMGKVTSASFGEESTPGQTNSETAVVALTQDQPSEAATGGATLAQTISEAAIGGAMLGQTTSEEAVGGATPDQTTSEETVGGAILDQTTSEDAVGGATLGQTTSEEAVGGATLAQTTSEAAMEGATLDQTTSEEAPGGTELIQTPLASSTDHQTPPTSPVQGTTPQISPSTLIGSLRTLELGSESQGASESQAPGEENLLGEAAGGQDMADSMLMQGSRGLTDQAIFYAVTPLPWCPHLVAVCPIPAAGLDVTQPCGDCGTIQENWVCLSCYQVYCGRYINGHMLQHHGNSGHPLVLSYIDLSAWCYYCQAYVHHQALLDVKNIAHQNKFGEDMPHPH
Assay: Chemoproteomic competition pulldown assay
Type: binding
Design: endogenous in cells; host or cells: SW620, MV4-11, A549 lysates
Conditions: for Kd: read-out: pKdapp (converted)
Description: To identify proteins directly bound by lipoic acid, we employed a chemoproteomic competition assay. Briefly, (R/S)-LA was immobilized on sepharose beads via an amidation reaction to form an affinity matrix (abbreviated as iL; Fig. 1a). This affinity matrix can be incubated with cell lysate to pull down potential LA or LM target proteins and identify these targets via bottom-up proteomics. In a competition assay, free LA or LM were incubated with lysate at different concentrations before pulling down and quantifying target proteins. […] (Fig. 1b, see “Methods” for details). […] The lysate buffer used in this assay contains 1 mM DTT to mimic the intracellular reductive milieu and to reduce lipoic acid and LM. […] Additional competition assays performed in lung adenocarcinoma cell A549 lysate also identified HDAC1, HDAC2, and HDAC6 as targets (Supplementary Fig. 1b). Amongst the three cell lines tested, HDACs were the only confidently identified targets across the 1500–3000 proteins quantified in these assays. […] We validated the results by analogous pulldown competition assays using two other affinity matrices prepared via the immobilization of either the HDAC inhibitor Quisinostat (iQ) and an analog of the class IIa HDAC inhibitor Bürli’s 31[14] (iC)[12]. We have previously shown that these affinity matrices specifically bind to the active sites of HDACs and have used them for HDACi selectivity profiling. Indeed, binding of (R/S)-LA and (R/S)-LM to HDAC1, HDAC2, HDAC3, HDAC6, and, to a lesser extent, HDAC8 was confirmed in these assays (Supplementary Fig. 1c, d). No binding to class IIa HDACs or the recently discovered common HDAC inhibitor off-target MBLAC2 was observed (Supplementary Fig. 1e)[12]. […] This observation might reflect electrostatic repulsion between the HDAC10 active site gate-keeper glutamic acid residues[15],[16] and the terminal carboxylic acid of LA.
To assess the degree of protein depletion from lysates by the affinity matrix, a second pulldown (PDPD) with fresh beads was performed using the unbound protein fraction from the vehicle control flow through. The beads were washed (1 × 1 mL of lysis buffer without inhibitors and only 0.4% Igepal, 2 × 2 mL of lysis buffer without inhibitors and only 0.2% Igepal), and captured proteins were denatured with 8 M urea buffer, alkylated with 55 mM chloroacetamide and digested with Trypsin according to standard procedures. The resulting peptides were desalted on a C18 filter plate (Sep-Pak® tC18 µElution Plate, Waters), vacuum dried, and stored at −20 °C until LC–MSMS measurement.
For the competition assays, relative binding was calculated based on the protein intensity ratio to the DMSO control for every single inhibitor concentration. EC50 values were derived from a four-parameter log-logistic regression with variable slope (constrain: bottom > 0). The obtained EC50 values were multiplied with a protein-dependent correction factor (cf), resulting in the apparent Kd value (Kd^app). The correction factor is determined by calculating the ratio of the protein intensity of two consecutive pulldowns of the vehicle control sample[13]. Targets of the inhibitors were annotated manually according to published procedures[12],[46],[47]. […] Additionally, the number of unique peptides and MSMS counts per condition were taken into account. Positive target binding across several independent experiments performed with different cell lysates further substantiated our confidence for a true positive drug-target binding event.

[1] = iQ, SW620 lysate, log10 M -3.52288
[2] = iQ, SW620 lysate, log10 M -4.52288
[3] = iQ, SW620 lysate, log10 M -5.52288
[4] = iQ, SW620 lysate, log10 M -6.52288

In the case of `O=C(O)CCCCC1CCSS1` (racemic) [(R/S)-LA, (R/S)-lipoic acid], the Kd (iL, A549) was 5.01 µM, the “relative binding vs DMSO” value (iL, A549 lysate, log10 M -4) was 0.05504 and the “relative binding vs DMSO” value (iL, A549 lysate, log10 M -4.52288) was 0.1518. The “relative binding vs DMSO” value (iL, A549 lysate, log10 M -5) was 0.3845, the “relative binding vs DMSO” value (iL, A549 lysate, log10 M -5.52288) was 0.7285 and the “relative binding vs DMSO” value (iL, A549 lysate, log10 M -6) was 0.9189. The “relative binding vs DMSO” value (iL, A549 lysate, log10 M -6.52288) was 1.088, the “relative binding vs DMSO” value (iL, A549 lysate, log10 M -7.52288) was 1.108 and the “relative binding vs DMSO” value (iL, A549 lysate, log10 M -8) was 1.195. For the same compound, the “relative binding vs DMSO” value (iL, A549 lysate, log10 M -8.52288) was 0.9886, the Kd (iL, SW620) was 10 µM and the “relative binding vs DMSO” value (iL, SW620 lysate, log10 M -3.52288) was 0.1052. For the same compound, the “relative binding vs DMSO” value (iL, SW620 lysate, log10 M -4) was 0.1618, the “relative binding vs DMSO” value (iL, SW620 lysate, log10 M -4.52288) was 0.8697 and the “relative binding vs DMSO” value (iL, SW620 lysate, log10 M -5) was 1.623. For the same compound, the “relative binding vs DMSO” value (iL, SW620 lysate, log10 M -5.52288) was 0.9452, the “relative binding vs DMSO” value (iL, SW620 lysate, log10 M -6) was 1.514 and the “relative binding vs DMSO” value (iL, SW620 lysate, log10 M -6.52288) was 0.6952. For the same compound, the “relative binding vs DMSO” value (iL, SW620 lysate, log10 M -7) was 1.008, the Kd (iQ, SW620) was 10 µM and the “relative binding vs DMSO” value [1] was 0.2137. For the same compound, the “relative binding vs DMSO” value (iQ, SW620 lysate, log10 M -4) was 0.2383, the “relative binding vs DMSO” value [2] was 0.4233 and the “relative binding vs DMSO” value (iQ, SW620 lysate, log10 M -5) was 0.664. For the same compound, the “relative binding vs DMSO” value [3] was 0.8619, the “relative binding vs DMSO” value (iQ, SW620 lysate, log10 M -6) was 0.8804 and the “relative binding vs DMSO” value [4] was 1.0379. The “relative binding vs DMSO” value (iQ, SW620 lysate, log10 M -7) was 0.9144.
In the case of `NC(=O)CCCCC1CCSS1` (racemic) [(R/S)-LM, (R/S)-lipoamide], the “relative binding vs DMSO” value (iL, MV4-11 lysate, log10 M -3.52288) was 0.06003, the “relative binding vs DMSO” value (iL, MV4-11 lysate, log10 M -4) was 0.1375 and the “relative binding vs DMSO” value (iL, MV4-11 lysate, log10 M -4.52288) was 0.3195. The “relative binding vs DMSO” value (iL, MV4-11 lysate, log10 M -5) was 0.763, the “relative binding vs DMSO” value (iL, MV4-11 lysate, log10 M -5.52288) was 0.7012 and the “relative binding vs DMSO” value (iL, MV4-11 lysate, log10 M -6) was 0.776. For the same compound, the “relative binding vs DMSO” value (iL, MV4-11 lysate, log10 M -6.52288) was 0.9127, the “relative binding vs DMSO” value (iL, MV4-11 lysate, log10 M -7) was 0.9147 and the pKd (iL, MV4-11 lysate, read-out: Kd app) was 4.68. It also gave a Kd (iL, MV411) of 10 µM, a Kd (iL, SW620) of 15.8 µM and a Kd (iQ, SW620) of 10 µM. For the same compound, the “relative binding vs DMSO” value [1] was 0.1855, the “relative binding vs DMSO” value (iQ, SW620 lysate, log10 M -4) was 0.2172 and the “relative binding vs DMSO” value [2] was 0.4129. The “relative binding vs DMSO” value (iQ, SW620 lysate, log10 M -5) was 0.6644, the “relative binding vs DMSO” value [3] was 0.9409 and the “relative binding vs DMSO” value (iQ, SW620 lysate, log10 M -6) was 1.062. For the same compound, the “relative binding vs DMSO” value [4] was 0.8866 and the “relative binding vs DMSO” value (iQ, SW620 lysate, log10 M -7) was 0.9139.
